This is an account of results in patent US20210221817A1, “NOVEL HETEROAROMATIC COMPOUNDS AS POTENT MODULATORS OF THE HIPPO-YAP SIGNALING PATHWAY LATS1/2 KINASES” (Nivien Therapeutics Compny, priority 2018, published 2021).

Assay [1] deals with YAP phosphorylation in PANC1 cells. Briefly: YAP phosphorylation in PDAC PANC1 cells (FIG. 1). Particulars: 48 h; for overall YAP levels / p-YAP levels (YAP phosphorylation): 5 μM and 25 μM. Format: cell-based. The method, then:
FIG. 1 is an image showing that the LATS1/2 inhibitors of the invention reduce YAP phosphorylation in PDAC PANC1 cells in a dose-dependent manner. FIG. 1 consists of two columns. On the left: the cells were treated with control and 5 μM of each of the compounds of the invention. Control in lane “C.” In lane “1” is 4-(6-(4-(2-morpholinoethoxy)phenyl)imidazo[1,2-b]pyridazin-3-yl)benzamide (compound 1). In lane “2” is 4-(6-(3-aminopiperidin-1-yl)imidazo[1,2-b]pyridazin-3-yl)benzamide (compound 3). In lane “4” is 4-(6-(4-aminopiperidin-1-yl)imidazo[1,2-b]pyridazin-3-yl)benzamide (compound 4). In lane “6” is 4-(6-(piperazin-1-yl)imidazo[1,2-b]pyridazin-3-yl)benzamide (compound 2). In lane “7” is 4-(4-(4-(4-chlorophenyl)piperidin-4-yl)phenyl)-3-methyl-1H-pyrazolo[4,3-c]pyridine (compound 5).
(§1) On the left: the cells were treated with control and 25 μM of each of the compounds of the invention. Control in lane “C.” In lane “1” is 4-(6-(4-(2-morpholinoethoxy)phenyl)imidazo[1,2-b]pyridazin-3-yl)benzamide (compound 1). In lane “2” is 4-(6-(3-aminopiperidin-1-yl)imidazo[1,2-b]pyridazin-3-yl)benzamide (compound 3). In lane “4” is 4-(6-(4-aminopiperidin-1-yl)imidazo[1,2-b]pyridazin-3-yl)benzamide (compound 4). In lane “6” is 4-(6-(piperazin-1-yl)imidazo[1,2-b]pyridazin-3-yl)benzamide (compound 2). In lane “7” is 4-(4-(4-(4-chlorophenyl)piperidin-4-yl)phenyl)-3-methyl-1H-pyrazolo[4,3-c]pyridine (Compound 5).
(§2) YAP is stained for Yes-associated protein; p-YAP is stained for phosphorylated Yes-associated protein; GAPDH is a standard protein loading control.

For assay [2], the system named is ABCG2 transcription in PANC1 cells. Put plainly: ABCG2 transcription in PDAC PANC1 cells (FIG. 2). Format: cell-based. The following applies: 25 μM, 48-hour treatment. The method, then:
FIG. 2 is an image showing that the LATS1/2 inhibitors of the invention reduce transcription of ABCG2, a critical multidrug efflux transporter, in PDAC PANC1 cells. The y-axis is the normalized transcription level of ABCG2. The bar labeled ABCG2_control represents PANC1 cells that received no treatment. The bar labeled ABCG2_201 represents PANC1 cells treated with 4-(6-(4-(2-morpholinoethoxy)phenyl)imidazo[1,2-b]pyridazin-3-yl)benzamide (compound 1) at 25 μM. The bar labeled ABCG2_206 represents cells treated with 4-(6-(piperazin-1-yl)imidazo[1,2-b]pyridazin-3-yl)benzamide (compound 2) 25 μM.

Assay [3] concerns the target T1, LATS1/2.
T1 construct: LATS1 (amino acids 589-1130; ThermoFisher, PV6363), LATS2 (amino acids 488-1080; fused on or other part: GST tag, inferred from the LanthaScreen Eu-anti-GST antibody and the ThermoFisher products
Briefly: TR-FRET LanthaScreen binding assay. The following applies: LATS1 (aa 589-1130), LATS2 (aa 488-1080), kinase tracer 236. The protocol:
IC50 scores were determined using a TR-FRET LanthaScreen binding assay using LATS1 (amino acids 589-1130; ThermoFisher, PV6363), LATS2 (amino acids 488-1080; ThermoFisher, PV6366); kinase tracer 236 (ThermoFisher, PV5592); LanthaScreen Eu-anti-GST (ThermoFisher, PV3189); 5× kinase buffer A (ThermoFisher, PV6135); low-volume 384-well plate format.
(TR-FRET usually uses a lanthanide donor and a delayed reading to cut background.)

For assay [4], the system named is PANC1 cells. Briefly: Killing of PANC1 cells observed in the FIG. 1 experiment. The format is cell-based. The following applies: higher dose (25 μM). The protocol:
as §1, §2

One may read the IC50 as the midpoint of a concentration-inhibition curve. Consider `NC(=O)c1ccc(-c2cnc3ccc(-c4ccc(OCCN5CCOCC5)cc4)nn23)cc1` [Compound 1, 4-(6-(4-(2-Morpholinoethoxy)phenyl)imidazo[1,2-b]pyridazin-3-yl)benzamide], for which, in assay [1], the “overall YAP levels” value is “without impacting overall YAP levels” and the “p-YAP levels (YAP phosphorylation)” value was “reduce p-YAP levels”. The ABCG2 transcription levels entry in assay [2] was “reduce ABCG2 transcription levels”. The compound further displayed an IC50 in assay [3] of 10 to 1000 nM.

For `Cc1n[nH]c2ccnc(-c3ccc(C4(c5ccc(Cl)cc5)CCNCC4)cc3)c12` [Compound 5, 4-(4-(4-(4-chlorophenyl)piperidin-4-yl)phenyl)-3-methyl-1H-pyrazolo[4,3-c]pyridine], the “p-YAP levels at the lower dose” value in assay [1] (lower dose (5 μM)) was “reduced p-YAP levels”. Also, the “killing of PANC1 cells at the higher dose” value in assay [4] is given as “killed all PANC1 cells”. In assay [3], this compound showed an IC50 of 0.1 to 50 nM.

For `NC(=O)c1ccc(-c2cnc3ccc(N4CCC(N)CC4)nn23)cc1` [Compound 4, 4-(6-(4-Aminopiperidin-1-yl)imidazo[1,2-b]pyridazin-3-yl)benzamide], in assay [3], the IC50 was in the range of 0.1 to 50 nM.

In the case of `NC(=O)c1ccc(-c2cnc3ccc(N4CCCC(N)C4)nn23)cc1` (stereo not shown) [Compound 3, 4-(6-(3-Aminopiperidin-1-yl)imidazo[1,2-b]pyridazin-3-yl)benzamide], the IC50 in assay [3] was in the range of 0.1 to 50 nM.

Take `NC(=O)c1ccc(-c2cnc3ccc(N4CCNCC4)nn23)cc1` [Compound 2, 4-(6-(piperazin-1-yl)imidazo[1,2-b]pyridazin-3-yl)benzamide]: in assay [1], the “overall YAP levels” value is recorded as “without impacting overall YAP levels” and the “p-YAP levels (YAP phosphorylation)” value is reported as “reduce p-YAP levels”. The ABCG2 transcription levels result in assay [2] is “reduce ABCG2 transcription levels”. The IC50 in assay [3] was 0.1 to 50 nM.
